Data on 12 compounds can be found in patent US20150119395A1, “NOVEL TRIAZOLE COMPOUNDS THAT MODULATE HSP90 ACTIVITY” (SYNTA PHARMACEUTICALS CORP., priority 2012, published 2015).

pEC50: −log10 of the molar value. Some results are limits rather than exact numbers.

In one assay the test system is Her2. The assay is described as follows: Degradation of Her2 in BT-474 cells, SDS-PAGE/immunoblot, Method 1. Format: cell-based, human. The conditions noted are these: 0.5 μM, overnight in DMEM medium. On the procedure:
BT-474 cells were treated with 0.5 μM, 2 μM, or 5 μM of 17AAG (a positive control) or 0.5 μM, 2 μM, or 5 μM of a compound of the invention overnight in DMEM medium. After treatment, each cytoplasmic sample was prepared from 1×10^6 cells by incubation of cell lysis buffer (#9803, Cell Signaling Technology) on ice for 10 minutes. The resulting supernatant used as the cytosol fractions was dissolved with sample buffer for SDS-PAGE and run on a SDS-PAGE gel, blotted onto a nitrocellulose membrane by using semi-dry transfer. Non-specific binding to nitrocellulose is blocked with 5% skim milk in TBS with 0.5% Tween at room temperature for 1 hour, then probed with anti-Her2/ErB2 mAb (rabbit IgG, #2242, Cell Signaling) and anti-Tubulin (T9026, Sigma) as housekeeping control protein. HRP-conjugated goat anti-rabbit IgG (H+L) and HRP-conjugated horse anti-mouse IgG (H+L) were used as secondary Ab (#7074, #7076, Cell Signaling) and LumiGLO reagent, 20× Peroxide (#7003, Cell Signaling) is used for visualization.
BT-474 cells were treated with 0.5 μM, 2 μM, or 5 μM of 17AAG (a positive control) or 0.5 μM, 2 μM, or 5 μM of a compound of the invention overnight in DMEM medium. After treatment, each cytoplasmic sample was prepared from 1×10^6 cells by incubation of cell lysis buffer (#9803, Cell Signaling Technology) on ice for 10 minutes. […]
`C=CCNC1=C2C[C@@H](C)C[C@H](OC)[C@H](O)[C@@H](C)/C=C(\C)[C@H](OC(N)=O)[C@@H](OC)/C=C\C=C(/C)C(=O)NC(=CC1=O)C2=O` [Compound 17AAG, 17-allylamino-17-demethoxygeldanamycin]: the “Degradation of Her2 (Western blot)” value is “partial degradation”.

The next assay relates to Her2. As to the kind of experiment: Her2 degradation in BT-474 cells, in-cell western (ICW), Method 2. Format: cell-based, human. Conditions: Table 3; read-out: EC50 range for Her2 degradation. The method, then:
Human BT474 (HTB-20), SK-BR-3 (HTB-30) and MCF-7 breast carcinoma cells (HTB-22) from American Type Culture Collection, VA, USA were grown in Dulbecco's modified Eagle's medium with 4 mM L-glutamine and antibiotics (100 IU/ml penicillin and 100 μg/ml streptomycine; GibcoBRL). To obtain exponential cell growth, cells were trypsinized, counted and seeded at a cell density of 0.5×10^6 cells/ml regularly, every 3 days. All experiments were performed on day 1 after cell passage.
BT-474 cells were plated in the interior 60 wells of a 96 well black clear bottom plate (20,000 cells/well) in DMEM medium, with DMEM media in the surrounding 36 wells, and incubated at 37° C. with 5% CO2 overnight. On the second day, concentration response curve source plates were produced (10 point, 3-fold dilution of compounds in DMSO) followed by a 1:30 dilution in an intermediate dilution plate containing DMEM. Compound was transferred from the intermediate plate to the cell plate at a dilution of 1:10. The cells were incubated at 37° C. with 5% CO2 for 24 hours.
Cells were fixed in 4% phosphate buffered paraformaldehyde for 30 minutes at room temperature and then permeabilized by washing five times with 0.1% Triton X-100 in PBS for 5 minutes at room temperature on a shaker. Cells were blocked with Odyssey Blocking Buffer (LI-COR, #927-40000) on a shaker at room temperature for 1.5 hours followed by incubation with Her2 antibody (CST, #2165) diluted 1:400 in blocking buffer overnight on a shaker at 4° C. Cells were washed five times with 0.1% Tween-20 in PBS for 5 minutes at room temperature on a shaker and incubated with fluorescently labeled secondary antibody (LI-COR, #926-32211) diluted 1:1000 in blocking buffer, and DRAQ5 nuclear stain (Biostatus Limited, #DRAQ5) diluted 1:10,000, at room temperature on a shaker for 1 hour. Cells were washed 5 times with 0.1% Tween-20 in PBS for 5 minutes at room temperature on a shaker and imaged on a LI-COR Odyssey imaging station. The raw data was normalized to DRAQ5 and the Her2 EC50 were calculated using XLfit.
Regarding `CC(C)c1cc(-c2nnc(-c3cc4ccccc4[nH]3)n2-c2ccccc2)c(O)cc1O` [Compound 14, 4-(5-(1H-indol-2-yl)-4-phenyl-4H-1,2,4-triazol-3-yl)-6-isopropylbenzene-1,3-diol], the pEC50 was 7.60. Turning to `CC(C)c1cc(-c2nnc(-c3cccnc3)n2-c2ccccc2)c(O)cc1O` [Compound 15, 4-isopropyl-6-(4-phenyl-5-(pyridin-3-yl)-4H-1,2,4-triazol-3-yl)benzene-1,3-diol], the negative-log EC50 (pEC50) was > 6.70. The same measure, in the same setting: then `CC(C)c1cc(-c2nnc(-c3cccnc3)n2-c2ccc(CN3CCN(C)CC3)cc2)c(O)cc1O` [Compound 16, 4-isopropyl-6-(4-(4-((4-methylpiperazin-1-yl)methyl)phenyl)-5-(pyridin-3-yl)-4H-1,2,4-triazol-3-yl)benzene-1,3-diol], with 7.74; and `CC(C)c1cc(-c2nnc(-c3cccnc3)n2-c2ccc(N3CCOCC3)cc2)c(O)cc1O` [Compound 17, 4-isopropyl-6-(4-(4-morpholinophenyl)-5-(pyridin-3-yl)-4H-1,2,4-triazol-3-yl)benzene-1,3-diol], with 7.42; and `COc1cc(O)c(-c2nnc(-c3cccnc3)n2-c2ccc(CN3CCOCC3)cc2Cl)cc1C(C)C` [Compound 18, 2-(4-(2-chloro-4-(morpholinomethyl)phenyl)-5-(pyridin-3-yl)-4H-1,2,4-triazol-3-yl)-4-isopropyl-5-methoxyphenol], with 5.30. The same measure, in the same setting: then `CCN1CCN(Cc2ccc(-n3c(-c4cccnc4)nnc3-c3cc(C(C)C)c(O)cc3O)c(Cl)c2)CC1` [Compound 19, 4-(4-(2-chloro-4-((4-ethylpiperazin-1-yl)methyl)phenyl)-5-(pyridin-3-yl)-4H-1,2,4-triazol-3-yl)-6-isopropylbenzene-1,3-diol], with 7.28. The same measure, in the same setting: in the case of `COc1cc(O)c(-c2nnc(-c3cccnc3)n2-c2ccc(CN3CCN(C)CC3)cc2)cc1C(C)C` [Compound 20, 4-isopropyl-5-methoxy-2-(4-(4-((4-methylpiperazin-1-yl)methyl)phenyl)-5-(pyridin-3-yl)-4H-1,2,4-triazol-3-yl)phenol] it was 5.68; in that of `CC(C)c1cc(-c2ccc(-c3cccnc3)n2-c2ccc(N3CCOCC3)cc2)c(O)cc1O` [Compound 21, 4-isopropyl-6-(1-(4-morpholinophenyl)-5-(pyridin-3-yl)-1H-pyrrol-2-yl)benzene-1,3-diol], 7.40; in that of `COc1ccc(-c2[nH]nc(-c3cc(C(C)C)c(O)cc3O)c2-c2ccc(OC)cc2)cc1` [Compound 22, 4-(4,5-bis(4-methoxyphenyl)-1H-pyrazol-3-yl)-6-isopropylbenzene-1,3-diol], < 6.70. As to `COc1ccc(-c2cnc(-c3cc(C(C)C)c(O)cc3O)n2-c2ccc(N3CCOCC3)nc2)cc1` [Compound 23, 4-isopropyl-6-(5-(4-methoxyphenyl)-1-(6-morpholinopyridin-3-yl)-1H-imidazol-2-yl)benzene-1,3-diol], the pEC50 is > 6.70. `COc1ccc(-c2cnc(-c3cc(C(C)C)c(O)cc3O)n2-c2ccc(CN3CCN(C)CC3)cc2)cc1` [Compound 24, 4-isopropyl-6-(5-(4-methoxyphenyl)-1-(4-((4-methylpiperazin-1-yl)methyl)phenyl)-1H-imidazol-2-yl)benzene-1,3-diol]: the negative-log EC50 (pEC50) is > 6.70.

Usually pEC50 stands for the EC50 on a negative log10 scale, so that one unit is a factor of ten.
